Molecular target: T1, estrogen receptor (Homo sapiens, UniProt P03372)
T1 construct: endogenous in cells; host or cells: ECC-1 cells
T1 sequence (P03372 1-595): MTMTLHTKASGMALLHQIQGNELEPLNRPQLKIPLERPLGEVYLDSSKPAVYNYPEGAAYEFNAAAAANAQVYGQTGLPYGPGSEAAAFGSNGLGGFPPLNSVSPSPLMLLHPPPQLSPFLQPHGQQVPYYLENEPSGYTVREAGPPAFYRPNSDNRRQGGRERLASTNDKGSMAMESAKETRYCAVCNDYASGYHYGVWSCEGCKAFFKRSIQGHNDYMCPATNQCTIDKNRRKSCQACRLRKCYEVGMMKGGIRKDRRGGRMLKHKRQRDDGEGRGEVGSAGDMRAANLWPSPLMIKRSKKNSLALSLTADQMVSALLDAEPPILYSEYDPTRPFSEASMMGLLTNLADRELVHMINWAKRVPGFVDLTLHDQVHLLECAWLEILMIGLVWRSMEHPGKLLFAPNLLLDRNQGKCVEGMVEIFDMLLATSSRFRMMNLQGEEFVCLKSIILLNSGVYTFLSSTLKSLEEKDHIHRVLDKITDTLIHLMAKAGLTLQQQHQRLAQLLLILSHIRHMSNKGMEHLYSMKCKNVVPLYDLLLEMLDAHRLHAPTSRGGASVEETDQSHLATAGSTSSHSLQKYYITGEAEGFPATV
Test: AP assay (alkaline phosphatase activity in ECC-1 cells), agonist mode (absence of E2) and antagonist mode (presence of 500 pM E2)
Assay type: cell-based
Settings: 3 days, AP activity normalized to 500 pM E2 alone, agonist and antagonist mode combined
Method: ECC-1 cells were trypsinized and resuspended in hormone-depleted media and plated at a density of 15 k cells per well into a 96-well plate for at least 4 hours. Cells were treated with test compounds in the absence of E2 (for agonist mode) or in the presence of 500 pM E2 (for antagonist mode) for 3 days and plates were subsequently frozen at −80 °C. Thawed plates were incubated with a chromogenic substrate of AP, p-nitrophenyl phosphate (Thermo Fisher Scientific), for 40 minutes at 42 °C, and absorbances were read at 405 nm. AP activity was normalized to the activity of 500 pM E2 alone.
The compound numbers correspond to the compound numbers of Table 1 and 2. Compounds having an activity designated as “+” provided estrogen receptor agonism having (i) at least 80% increase in the E2-normalized signal in the AP assay (agonist mode) and (ii) no more than 80% reduction in the E2-normalized signal in the AP assay (antagonist mode). Compounds having an activity designated as “++” provided estrogen receptor antagonism having (i) between 10% and 80% increase in the E2-normalized signal in the AP assay (agonist mode) and (ii) between 10% and 80% reduction in the E2-normalized signal in the AP assay (antagonist mode).

Question: How did the “Activity (estrogen receptor modulation, e.g., agonism and antagonism)” value (shortened to “Activity”) turn out when CC1CN(Cc2ccc3c([C@@H]4c5[nH]c6ccccc6c5C[C@@H](C)N4CC(C)(C)F)n[nH]c3c2)C1 [Compound I-11, (1S,3R)-2-(2-fluoro-2-methyl-propyl)-3-methyl-1-[6-[(3-methylazetidin-1-yl)methyl]-1H-indazol-3-yl]-1,3,4,9-tetrahydropyrido[3,4-b]indole] was run?
Answer: ++ (estrogen receptor antagonism having (i) between 10% and 80% increase in the E2-normalized signal in the AP assay (agonist mode) and (ii) between 10% and 80% reduction in the E2-normalized signal in the AP assay (antagonist mode))

Question: For C[C@@H]1Cc2c([nH]c3ccccc23)[C@@H](c2n[nH]c3cc(CN(C)CCCF)ccc23)N1CC(C)(C)F [Compound I-12, 3-fluoro-N-[[3-[(1S,3R)-2-(2-fluoro-2-methyl-propyl)-3-methyl-1,3,4,9-tetrahydropyrido[3,4-b]indol-1-yl]-1H-indazol-6-yl]methyl]-N-methyl-propan-1-amine], which “Activity” value is on record?
Answer: + (estrogen receptor agonism having (i) at least 80% increase in the E2-normalized signal in the AP assay (agonist mode) and (ii) no more than 80% reduction in the E2-normalized signal in the AP assay (antagonist mode))

Question: With CCCN(C)Cc1ccc2c([C@@H]3c4[nH]c5ccccc5c4C[C@@H](C)N3CC(C)(C)F)n[nH]c2c1 [Compound I-13, N-[[3-[(1S,3R)-2-(2-fluoro-2-methyl-propyl)-3-methyl-1,3,4,9-tetrahydropyrido[3,4-b]indol-1-yl]-1H-indazol-6-yl]methyl]-N-methyl-propan-1-amine] as the compound, how does the “Activity” value read?
Answer: + (estrogen receptor agonism having (i) at least 80% increase in the E2-normalized signal in the AP assay (agonist mode) and (ii) no more than 80% reduction in the E2-normalized signal in the AP assay (antagonist mode))

Question: How did the “Activity” value turn out when C[C@@H]1Cc2c([nH]c3ccccc23)[C@@H](c2n[nH]c3cc(CNCCCF)ccc23)N1CC(C)(C)F [Compound I-14, 3-fluoro-N-[[3-[(1S,3R)-2-(2-fluoro-2-methyl-propyl)-3-methyl-1,3,4,9-tetrahydropyrido[3,4-b]indol-1-yl]-1H-indazol-6-yl]methyl]propan-1-amine] was run?
Answer: + (estrogen receptor agonism having (i) at least 80% increase in the E2-normalized signal in the AP assay (agonist mode) and (ii) no more than 80% reduction in the E2-normalized signal in the AP assay (antagonist mode))

Question: Which “Activity” value does the source give for C[C@@H]1Cc2c([nH]c3ccccc23)[C@@H](c2c[nH]c3cc(CN4CC(CF)C4)ccc23)N1CC(F)(F)CO [Compound I-15, 2,2-difluoro-3-[(1R,3R)-1-[6-[[3-(fluoromethyl)azetidin-1-yl]methyl]-1H-indol-3-yl]-3-methyl-1,3,4,9-tetrahydropyrido[3,4-b]indol-2-yl]propan-1-ol] here?
Answer: ++ (estrogen receptor antagonism having (i) between 10% and 80% increase in the E2-normalized signal in the AP assay (agonist mode) and (ii) between 10% and 80% reduction in the E2-normalized signal in the AP assay (antagonist mode))

Question: C[C@@H]1Cc2c([nH]c3ccccc23)[C@@H](c2n[nH]c3cc(CN4CC(CF)C4)ccc23)N1CC(F)(F)CO [Compound I-16, 2,2-difluoro-3-[(1S,3R)-1-[6-[[3-(fluoromethyl)azetidin-1-yl]methyl]-1H-indazol-3-yl]-3-methyl-1,3,4,9-tetrahydropyrido[3,4-b]indol-2-yl]propan-1-ol] was tested. Which “Activity” value did it give?
Answer: ++ (estrogen receptor antagonism having (i) between 10% and 80% increase in the E2-normalized signal in the AP assay (agonist mode) and (ii) between 10% and 80% reduction in the E2-normalized signal in the AP assay (antagonist mode))

Question: How did the “Activity” value turn out when CC1CN(Cc2ccc3c([C@@H]4c5[nH]c6ccccc6c5C[C@@H](C)N4CC(F)(F)CO)n[nH]c3c2)C1 [Compound I-17, 2,2-difluoro-3-((1S,3R)-3-methyl-1-(6-((3-methylazetidin-1-yl)methyl)-1H-indazol-3-yl)-1,3,4,9-tetrahydro-2H-pyrido[3,4-b]indol-2-yl)propan-1-ol] was run?
Answer: +++ (estrogen receptor antagonism (i) with pIC50 greater than 7.5 and at least a 10% reduction in the E2-normalized signal in the AP assay (antagonist mode); and (ii) no more than 10% increase in E2-normalized signal in the AP assay (agonist mode))

Question: With C[C@@H]1Cc2c([nH]c3ccccc23)[C@@H](c2n[nH]c3cc(CN4CC[C@@H](CF)C4)ccc23)N1CC(C)(C)F [Compound I-24, (1S,3R)-2-(2-fluoro-2-methyl-propyl)-1-[6-[[(3R)-3-(fluoromethyl)pyrrolidin-1-yl]methyl]-1H-indazol-3-yl]-3-methyl-1,3,4,9-tetrahydropyrido[3,4-b]indole] as the compound, how does the “Activity” value read?
Answer: + (estrogen receptor agonism having (i) at least 80% increase in the E2-normalized signal in the AP assay (agonist mode) and (ii) no more than 80% reduction in the E2-normalized signal in the AP assay (antagonist mode))

Question: How did the “Activity” value turn out when C[C@@H]1Cc2c([nH]c3ccccc23)[C@@H](c2c[nH]c3c(F)c(CN4CC(CF)C4)ccc23)N1CC(C)(C)F [Compound I-29, (1R,3R)-1-[7-fluoro-6-[[3-(fluoromethyl)azetidin-1-yl]methyl]-1H-indol-3-yl]-2-(2-fluoro-2-methyl-propyl)-3-methyl-1,3,4,9-tetrahydropyrido[3,4-b]indole] was run?
Answer: ++ (estrogen receptor antagonism having (i) between 10% and 80% increase in the E2-normalized signal in the AP assay (agonist mode) and (ii) between 10% and 80% reduction in the E2-normalized signal in the AP assay (antagonist mode))

Question: How did the “Activity” value turn out when C[C@@H]1Cc2c([nH]c3ccccc23)[C@@H](c2c[nH]c3cc(CC4CN(C)C4)ccc23)N1CC(C)(C)F [Compound I-30, (1R,3R)-2-(2-fluoro-2-methyl-propyl)-3-methyl-1-[6-[(1-methylazetidin-3-yl)methyl]-1H-indol-3-yl]-1,3,4,9-tetrahydropyrido[3,4-b]indole] was run?
Answer: + (estrogen receptor agonism having (i) at least 80% increase in the E2-normalized signal in the AP assay (agonist mode) and (ii) no more than 80% reduction in the E2-normalized signal in the AP assay (antagonist mode))

Question: Which “Activity” value does the source give for C[C@@H]1Cc2c([nH]c3ccccc23)[C@@H](c2n[nH]c3cc(CN4CC5(CC(O)C5)C4)ccc23)N1CC(C)(C)F [Compound I-31, 2-[[3-[(1S,3R)-2-(2-fluoro-2-methyl-propyl)-3-methyl-1,3,4,9-tetrahydropyrido[3,4-b]indol-1-yl]-1H-indazol-6-yl]methyl]-2-azaspiro[3.3]heptan-6-ol] here?
Answer: + (estrogen receptor agonism having (i) at least 80% increase in the E2-normalized signal in the AP assay (agonist mode) and (ii) no more than 80% reduction in the E2-normalized signal in the AP assay (antagonist mode))

Question: For C[C@@H]1Cc2c([nH]c3ccccc23)[C@@H](c2n[nH]c3cc(CN4CC(C#N)C4)ccc23)N1CC(C)(C)F [Compound I-32, 1-[[3-[(1S,3R)-2-(2-fluoro-2-methyl-propyl)-3-methyl-1,3,4,9-tetrahydropyrido[3,4-b]indol-1-yl]-1H-indazol-6-yl]methyl]azetidine-3-carbonitrile], which “Activity” value is on record?
Answer: + (estrogen receptor agonism having (i) at least 80% increase in the E2-normalized signal in the AP assay (agonist mode) and (ii) no more than 80% reduction in the E2-normalized signal in the AP assay (antagonist mode))

Question: How did the “Activity” value turn out when C[C@@H]1Cc2c([nH]c3ccccc23)[C@@H](c2n[nH]c3cc(CN4CC5(CC(F)C5)C4)ccc23)N1CC(C)(C)F [Compound I-33, (1S,3R)-1-[6-[(6-fluoro-2-azaspiro[3.3]heptan-2-yl)methyl]-1H-indazol-3-yl]-2-(2-fluoro-2-methyl-propyl)-3-methyl-1,3,4,9-tetrahydropyrido[3,4-b]indole] was run?
Answer: +++ (estrogen receptor antagonism (i) with pIC50 greater than 7.5 and at least a 10% reduction in the E2-normalized signal in the AP assay (antagonist mode); and (ii) no more than 10% increase in E2-normalized signal in the AP assay (agonist mode))

Question: With C[C@@H]1Cc2c([nH]c3ccccc23)[C@@H](c2n[nH]c3cc(CN4CCC45CC(F)(F)C5)ccc23)N1CC(C)(C)F [Compound I-34, (1S,3R)-1-[6-[(6,6-difluoro-1-azaspiro[3.3]heptan-1-yl)methyl]-1H-indazol-3-yl]-2-(2-fluoro-2-methyl-propyl)-3-methyl-1,3,4,9-tetrahydropyrido[3,4-b]indole] as the compound, how does the “Activity” value read?
Answer: + (estrogen receptor agonism having (i) at least 80% increase in the E2-normalized signal in the AP assay (agonist mode) and (ii) no more than 80% reduction in the E2-normalized signal in the AP assay (antagonist mode))

— patent publication US20260355165A1, “2,3,4,9-TETRAHYDRO-1H-PYRIDO[3,4-B]INDOLE DERIVATIVES AS ESTROGEN RECEPTOR MODULATORS FOR THE TREATMENT OF CANCER” (Olema Pharmaceuticals, Inc., priority 2022, published 2026)
